The NIST ThermoML archive (doi:10.1016/j.jct.2018.08.035)
± gives the expanded uncertainty stated by the source.

Experiment: xn = mol fraction of the nth substance listed
Settings: 100 kPa, Liquid, Vibrating tube method

CCC(O)CC [3-pentanol] + C[N+](=O)[O-]
mass density (290.86 K, x1 = 0.414): 977.244 ± 2 kg/m3 | mass density (290.86 K, x1 = 0.615): 890.972 ± 1.9 kg/m3 | mass density (290.95 K, x1 = 0.246): 1006.81 ± 2.2 kg/m3 | mass density (290.95 K, x1 = 0.266): 998.292 ± 2.2 kg/m3 | mass density (290.95 K, x1 = 0.275): 994.793 ± 2.2 kg/m3 | mass density (290.95 K, x1 = 0.3): 988.13 ± 2 kg/m3 | mass density (290.95 K, x1 = 0.325): 987.695 ± 2 kg/m3 | mass density (290.95 K, x1 = 0.338): 986.437 ± 2 kg/m3 | mass density (290.95 K, x1 = 0.363): 982.374 ± 2 kg/m3 | mass density (290.95 K, x1 = 0.382): 980.189 ± 2 kg/m3 | mass density (290.95 K, x1 = 0.407): 976.76 ± 2 kg/m3 | mass density (290.95 K, x1 = 0.414): 976.042 ± 2 kg/m3 | mass density (290.95 K, x1 = 0.486): 956.644 ± 2.1 kg/m3 | mass density (290.95 K, x1 = 0.488): 952.742 ± 2.3 kg/m3 | mass density (290.95 K, x1 = 0.546): 927.124 ± 2.2 kg/m3 | mass density (290.95 K, x1 = 0.573): 908.776 ± 2.5 kg/m3 | mass density (290.95 K, x1 = 0.587): 897.749 ± 1.9 kg/m3 | mass density (290.95 K, x1 = 0.615): 890.865 ± 1.9 kg/m3 | mass density (291.05 K, x1 = 0.246): 1006.69 ± 2.2 kg/m3 | mass density (291.05 K, x1 = 0.275): 994.663 ± 2.2 kg/m3 | mass density (291.05 K, x1 = 0.382): 978.765 ± 2 kg/m3 | mass density (291.05 K, x1 = 0.407): 975.346 ± 2 kg/m3 | mass density (291.05 K, x1 = 0.414): 974.647 ± 2 kg/m3 | mass density (291.05 K, x1 = 0.486): 954.019 ± 2.2 kg/m3 | mass density (291.05 K, x1 = 0.488): 945.483 ± 2.1 kg/m3 | mass density (291.05 K, x1 = 0.573): 903.111 ± 2.7 kg/m3 | mass density (291.06 K, x1 = 0.266): 998.167 ± 2.2 kg/m3 | mass density (291.06 K, x1 = 0.3): 986.306 ± 2 kg/m3 | mass density (291.06 K, x1 = 0.325): 985.699 ± 2 kg/m3 | mass density (291.06 K, x1 = 0.338): 984.897 ± 2 kg/m3 | mass density (291.06 K, x1 = 0.363): 981.518 ± 2 kg/m3 | mass density (291.06 K, x1 = 0.546): 924.902 ± 2.2 kg/m3 | mass density (291.06 K, x1 = 0.587): 897.593 ± 1.9 kg/m3 | mass density (291.06 K, x1 = 0.615): 890.758 ± 1.9 kg/m3 | mass density (291.15 K, x1 = 0.246): 1006.56 ± 2.2 kg/m3 | mass density (291.15 K, x1 = 0.266): 998.042 ± 2.2 kg/m3 | mass density (291.15 K, x1 = 0.275): 994.538 ± 2.2 kg/m3 | mass density (291.15 K, x1 = 0.3): 985.201 ± 2.1 kg/m3 | mass density (291.15 K, x1 = 0.325): 983.513 ± 2.1 kg/m3 | mass density (291.15 K, x1 = 0.338): 982.822 ± 2.1 kg/m3 | mass density (291.15 K, x1 = 0.382): 977.024 ± 2 kg/m3 | mass density (291.15 K, x1 = 0.407): 973.664 ± 2 kg/m3 | mass density (291.15 K, x1 = 0.414): 973.001 ± 2 kg/m3 | mass density (291.15 K, x1 = 0.486): 951.113 ± 2.2 kg/m3 | mass density (291.15 K, x1 = 0.488): 947.64 ± 2.1 kg/m3 | mass density (291.15 K, x1 = 0.573): 901.117 ± 1.9 kg/m3 | mass density (291.15 K, x1 = 0.615): 890.652 ± 1.9 kg/m3 | mass density (291.15 K, x1 = 0.629): 887.189 ± 1.9 kg/m3 | mass density (291.16 K, x1 = 0.363): 980.295 ± 2 kg/m3 | mass density (291.16 K, x1 = 0.546): 921.069 ± 2.2 kg/m3 | mass density (291.16 K, x1 = 0.587): 897.497 ± 1.9 kg/m3 | mass density (291.25 K, x1 = 0.246): 1006.44 ± 2.2 kg/m3 | mass density (291.25 K, x1 = 0.266): 997.918 ± 2.2 kg/m3 | mass density (291.25 K, x1 = 0.275): 994.413 ± 2.2 kg/m3 | mass density (291.25 K, x1 = 0.3): 985.014 ± 2.1 kg/m3 | mass density (291.25 K, x1 = 0.325): 980.203 ± 2.1 kg/m3 | mass density (291.25 K, x1 = 0.338): 980.22 ± 2.1 kg/m3 | mass density (291.25 K, x1 = 0.382): 974.837 ± 2.1 kg/m3 | mass density (291.25 K, x1 = 0.407): 971.578 ± 2 kg/m3 | mass density (291.25 K, x1 = 0.414): 970.955 ± 2 kg/m3 | mass density (291.25 K, x1 = 0.486): 947.303 ± 2.3 kg/m3 | mass density (291.25 K, x1 = 0.488): 944.104 ± 2.2 kg/m3 | mass density (291.25 K, x1 = 0.573): 901.031 ± 1.9 kg/m3 | mass density (291.25 K, x1 = 0.587): 897.388 ± 1.9 kg/m3 | mass density (291.25 K, x1 = 0.615): 890.547 ± 1.9 kg/m3 | mass density (291.26 K, x1 = 0.363): 978.023 ± 2 kg/m3 | mass density (291.26 K, x1 = 0.546): 917.045 ± 2.4 kg/m3 | mass density (291.35 K, x1 = 0.246): 1006.32 ± 2.2 kg/m3 | mass density (291.35 K, x1 = 0.275): 994.289 ± 2.2 kg/m3 | mass density (291.35 K, x1 = 0.382): 972.169 ± 2.1 kg/m3 | mass density (291.35 K, x1 = 0.407): 969.156 ± 2.1 kg/m3 | mass density (291.35 K, x1 = 0.414): 968.504 ± 2.1 kg/m3 | mass density (291.35 K, x1 = 0.486): 943.014 ± 2.3 kg/m3 | mass density (291.35 K, x1 = 0.488): 939.641 ± 2.3 kg/m3 | mass density (291.35 K, x1 = 0.573): 900.922 ± 1.9 kg/m3 | mass density (291.36 K, x1 = 0.266): 997.796 ± 2.2 kg/m3 | mass density (291.36 K, x1 = 0.3): 984.888 ± 2.1 kg/m3 | mass density (291.36 K, x1 = 0.325): 976.768 ± 2.1 kg/m3
